Several values for one entry are separate records, joined by “and”; a condition that tells them apart may be missing. Equal entries are not always repeated.
Tests used:
RPMI-6666 = assay: cells; assay type: functional, cell-based; conditions: Homo sapiens
Description: SANGER: Inhibition of human RPMI-6666 cell growth in a cell viability assay.

PF-382 = assay: cells; assay type: functional, cell-based; conditions: Homo sapiens
Description: SANGER: Inhibition of human PF-382 cell growth in a cell viability assay.

NCI-H1522 = assay: cells; assay type: functional, cell-based; conditions: Homo sapiens;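 further: growth inhibition of NCI-H1522 cells, read out with a cell viability assay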
Description: SANGER: Inhibition of human NCI-H1522 cell growth in a cell viability assay.

BOKU = assay: cells; assay type: functional, cell-based; conditions: Homo sapiens;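 further: growth inhibition of the human BOKU cell line, read out by a cell viability assay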
Description: SANGER: Inhibition of human BOKU cell growth in a cell viability assay.

WSU-NHL = assay: cells; assay type: functional, cell-based; conditions: Homo sapiens;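 further: growth inhibition of human WSU-NHL cells, read out with a cell viability assay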
Description: SANGER: Inhibition of human WSU-NHL cell growth in a cell viability assay.

KARPAS-422 = assay: cells; assay type: functional, cell-based; conditions: Homo sapiens
Description: SANGER: Inhibition of human KARPAS-422 cell growth in a cell viability assay.

HSC-4 = assay: cells; assay type: functional, cell-based, Homo sapiens; conditions: hsc-4;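 further: growth inhibition of human HSC-4 cells, read out with a cell viability assay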
Description: SANGER: Inhibition of human HSC-4 cell growth in a cell viability assay.

EPLC-272H = assay: cells; assay type: functional, cell-based; conditions: Homo sapiens
Description: SANGER: Inhibition of human EPLC-272H cell growth in a cell viability assay.

TALL-1 = assay: cells; assay type: functional, cell-based; conditions: Homo sapiens;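 further: growth inhibition of cultured human TALL-1 cells, read out by a cell viability assay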
Description: SANGER: Inhibition of human TALL-1 cell growth in a cell viability assay.

BC1 cell line = assay: SANGER: Inhibition of human BC-1 cell growth in a cell viability assay.; assay type: functional, cell-based
NCI-H345 = assay: cells; assay type: functional, cell-based; conditions: Homo sapiens;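 further: growth inhibition of NCI-H345 cells measured with a cell viability assay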
Description: SANGER: Inhibition of human NCI-H345 cell growth in a cell viability assay.

BT-549 = assay: cells; assay type: functional, cell-based; conditions: Homo sapiens
Description: SANGER: Inhibition of human BT-549 cell growth in a cell viability assay.

SW900 = assay: cells; assay type: functional, cell-based; conditions: Homo sapiens;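 further: IC50 is the concentration that inhibits SW900 cell growth, measured by a cell viability assay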
Description: SANGER: Inhibition of human SW900 cell growth in a cell viability assay.

SNU-423 = assay: cells; assay type: functional, cell-based, Homo sapiens; conditions: snu-423
Description: SANGER: Inhibition of human SNU-423 cell growth in a cell viability assay.

NCI-H2227 = assay: cells; assay type: functional, cell-based; conditions: Homo sapiens;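 further: growth inhibition of the human cell line, read out with a cell viability assay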
Description: SANGER: Inhibition of human NCI-H2227 cell growth in a cell viability assay.

MEL-JUSO = assay: cells; assay type: functional, cell-based, Homo sapiens; conditions: mel-juso;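 further: growth inhibition of human MEL-JUSO cells, read out with a cell viability assay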
Description: SANGER: Inhibition of human MEL-JUSO cell growth in a cell viability assay.

OC-314 = assay: cells; assay type: functional, cell-based; conditions: Homo sapiens
Description: SANGER: Inhibition of human OC-314 cell growth in a cell viability assay.

REH = assay: cells; assay type: functional, cell-based; conditions: Homo sapiens;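 further: growth inhibition of REH cells determined with a cell viability read-out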
Description: SANGER: Inhibition of human REH cell growth in a cell viability assay.

Daudi = assay: cells; assay type: functional, cell-based; conditions: Homo sapiens;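 further: growth inhibition of Daudi cells, read out by a viability assay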
Description: SANGER: Inhibition of human Daudi cell growth in a cell viability assay.

BL-70 = assay: SANGER: Inhibition of human BL-70 cell growth in a cell viability assay.; assay type: functional, cell-based
NCI-H889 = assay: cells; assay type: functional, cell-based; conditions: Homo sapiens;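 further: cell growth inhibition of the cell line, read out with a viability assay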
Description: SANGER: Inhibition of human NCI-H889 cell growth in a cell viability assay.

GDM-1 = assay: cells; assay type: functional, cell-based; conditions: Homo sapiens;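 further: cell viability readout used to measure growth inhibition of human GDM-1 cells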
Description: SANGER: Inhibition of human GDM-1 cell growth in a cell viability assay.

SW 1116 = assay: cells; assay type: functional, cell-based; conditions: Homo sapiens;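 further: growth inhibition of SW1116 cells, read out with a cell viability assay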
Description: SANGER: Inhibition of human SW1116 cell growth in a cell viability assay.

THP-1 = assay: cells; assay type: functional, cell-based; conditions: Homo sapiens;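 further: growth inhibition of THP-1 cells, read out via a cell viability assay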
Description: SANGER: Inhibition of human THP-1 cell growth in a cell viability assay.

BL-41 = assay: cells; assay type: functional, cell-based; conditions: Homo sapiens;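 further: growth inhibition of human BL-41 cells, read out with a cell viability assay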
Description: SANGER: Inhibition of human BL-41 cell growth in a cell viability assay.

D-423MG = assay: cells; assay type: functional, cell-based; conditions: Homo sapiens
Description: SANGER: Inhibition of human D-423MG cell growth in a cell viability assay.

MHH-CALL-2 = assay: cells; assay type: functional, cell-based; conditions: Homo sapiens;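 further: growth inhibition of the cell line, read out in a cell viability assay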
Description: SANGER: Inhibition of human MHH-CALL-2 cell growth in a cell viability assay.

NB1 = assay: cells; assay type: functional, cell-based; conditions: Homo sapiens;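 further: reduction of NB1 cell proliferation, read out with a viability assay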
Description: SANGER: Inhibition of human NB1 cell growth in a cell viability assay.

OPM-2 = assay: cells; assay type: functional, cell-based; conditions: Homo sapiens;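 further: growth of OPM-2 cells measured with a viability assay, IC50 for suppression of proliferation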
Description: SANGER: Inhibition of human OPM-2 cell growth in a cell viability assay.

Raji = assay: cells; assay type: functional, cell-based; conditions: Homo sapiens;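 further: cell viability assay measuring inhibition of Raji cell growth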
Description: SANGER: Inhibition of human Raji cell growth in a cell viability assay.

EB2 = assay: cells; assay type: functional, cell-based; conditions: Homo sapiens;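 further: growth inhibition of EB2 cells, read out with a cell viability assay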
Description: SANGER: Inhibition of human EB2 cell growth in a cell viability assay.

CA46 = assay: cells; assay type: functional, cell-based; conditions: Homo sapiens;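 further: growth inhibition of human CA46 cells, read out by a cell viability assay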
Description: SANGER: Inhibition of human CA46 cell growth in a cell viability assay.

NCI-H1436 = assay: cells; assay type: functional, cell-based; conditions: Homo sapiens;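 further: growth suppression of human NCI-H1436 cells, determined with a cell viability readout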
Description: SANGER: Inhibition of human NCI-H1436 cell growth in a cell viability assay.

NCI-H2196 = assay: cells; assay type: functional, cell-based; conditions: Homo sapiens;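 further: cell viability assay used as the readout of growth inhibition in NCI-H2196 cells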
Description: SANGER: Inhibition of human NCI-H2196 cell growth in a cell viability assay.

UACC-812 = assay: cells; assay type: functional, cell-based; conditions: Homo sapiens
Description: SANGER: Inhibition of human UACC-812 cell growth in a cell viability assay.

NCI-H1573 = assay: cells; assay type: functional, cell-based; conditions: Homo sapiens;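 further: growth inhibition of NCI-H1573 cells, read out with a cell viability assay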
Description: SANGER: Inhibition of human NCI-H1573 cell growth in a cell viability assay.

NCI-H1882 = assay: cells; assay type: functional, cell-based; conditions: Homo sapiens
Description: SANGER: Inhibition of human NCI-H1882 cell growth in a cell viability assay.

L-540 = assay: cells; assay type: functional, cell-based; conditions: Homo sapiens;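 further: growth inhibition of the human L-540 cell line, read out with a viability assay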
Description: SANGER: Inhibition of human L-540 cell growth in a cell viability assay.

ECC12 = assay: cells; assay type: functional, cell-based; conditions: Homo sapiens
Description: SANGER: Inhibition of human ECC12 cell growth in a cell viability assay.

LC-1F = assay: cells; assay type: functional, cell-based; conditions: Homo sapiens;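 further: growth inhibition of human LC-1F cells, read out with a cell viability assay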
Description: SANGER: Inhibition of human LC-1F cell growth in a cell viability assay.

LP-1 = assay: cells; assay type: functional, cell-based; conditions: Homo sapiens;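 further: growth inhibition of human LP-1 cells, with the read-out taken from a cell viability assay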
Description: SANGER: Inhibition of human LP-1 cell growth in a cell viability assay.

YT = assay: cells; assay type: functional, cell-based; conditions: Homo sapiens
Description: SANGER: Inhibition of human YT cell growth in a cell viability assay.

HCC1599 = assay: cells; assay type: functional, cell-based; conditions: Homo sapiens;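 further: growth inhibition of HCC1599 cells, read out in a cell viability assay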
Description: SANGER: Inhibition of human HCC1599 cell growth in a cell viability assay.

NCI-H2009 = assay: cells; assay type: functional, cell-based, Homo sapiens; conditions: nci-h2009;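 further: cell viability assay measuring inhibition of NCI-H2009 cell growth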
Description: SANGER: Inhibition of human NCI-H2009 cell growth in a cell viability assay.

CMK = assay: cells; assay type: functional, cell-based; conditions: Homo sapiens;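 further: growth inhibition of CMK cells, read out as cell viability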
Description: SANGER: Inhibition of human CMK cell growth in a cell viability assay.

RPMI 8402 = assay: SANGER: Inhibition of human RPMI-8402 cell growth in a cell viability assay.; assay type: functional, cell-based
23132-87 = assay: cells; assay type: functional, cell-based, Homo sapiens
Description: SANGER: Inhibition of human 23132-87 cell growth in a cell viability assay.

JIYOYE = assay: cells; assay type: functional, cell-based; conditions: Homo sapiens
Description: SANGER: Inhibition of human JiyoyeP-2003 cell growth in a cell viability assay.

SUP-T1 = assay: cells; assay type: functional, cell-based; conditions: Homo sapiens;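 further: growth inhibition of human SUP-T1 cells, read out as cell viability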
Description: SANGER: Inhibition of human SUP-T1 cell growth in a cell viability assay.

YH-13 = assay: cells; assay type: functional, cell-based; conditions: Homo sapiens;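 further: cell viability readout of growth suppression in the human YH-13 cell line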
Description: SANGER: Inhibition of human YH-13 cell growth in a cell viability assay.

K052 = assay: cells; assay type: functional, cell-based; conditions: Homo sapiens;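 further: Read-out from a cell viability assay, IC50 reflecting suppression of K052 cell growth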
Description: SANGER: Inhibition of human K052 cell growth in a cell viability assay.

NCI-H1703 = assay: cells; assay type: functional, cell-based, Homo sapiens;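 further: growth inhibition of NCI-H1703 cells, read out via a cell viability assay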
Description: SANGER: Inhibition of human NCI-H1703 cell growth in a cell viability assay.

SNU-C1 = assay: cells; assay type: functional, cell-based; conditions: Homo sapiens;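 further: growth inhibition of SNU-C1 human cells, read out by a cell viability assay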
Description: SANGER: Inhibition of human SNU-C1 cell growth in a cell viability assay.

IMR-5 = assay: cells; assay type: functional, cell-based; conditions: Homo sapiens;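 further: growth inhibition of human IMR-5 cells, read out with a cell viability assay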
Description: SANGER: Inhibition of human IMR-5 cell growth in a cell viability assay.

LC4-1 = assay: cells; assay type: functional, cell-based; conditions: Homo sapiens;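 further: growth inhibition of LC4-1 cells, read out with a cell viability assay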
Description: SANGER: Inhibition of human LC4-1 cell growth in a cell viability assay.

RL = assay: cells; assay type: functional, cell-based; conditions: Homo sapiens
Description: SANGER: Inhibition of human RL cell growth in a cell viability assay.

ECC4 = assay: cells; assay type: functional, cell-based; conditions: Homo sapiens;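 further: growth inhibition of ECC4 cells, read out with a cell viability assay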
Description: SANGER: Inhibition of human ECC4 cell growth in a cell viability assay.

Cc1cc([C@@H](C)Nc2ccccc2C(=O)O)c2nc(N3CCOCC3)cc(=O)n2c1 [AZD-6482]
IC50 (RPMI-6666): 0.644 µM
IC50 (PF-382): > 5.12 µM
IC50 (NCI-H1522): > 5.12 µM
IC50 (BOKU): > 5.12 µM
IC50 (WSU-NHL): > 5.12 µM
IC50 (KARPAS-422): 1.54 µM
IC50 (HSC-4): > 5.12 µM
IC50 (EPLC-272H): > 5.12 µM
IC50 (TALL-1): > 5.12 µM
IC50 (BC1 cell line): > 5.12 µM
IC50 (NCI-H345): > 5.12 µM
IC50 (BT-549): > 5.12 µM
IC50 (SW900): > 5.12 µM
IC50 (SNU-423): 1.57 µM and > 5.12 µM
IC50 (NCI-H2227): > 5.12 µM
IC50 (MEL-JUSO): > 5.12 µM
IC50 (OC-314): > 5.12 µM
IC50 (REH): > 5.12 µM
IC50 (Daudi): 1.07 µM
IC50 (BL-70): 4.86 µM
IC50 (NCI-H889): > 5.12 µM
IC50 (GDM-1): 2.24 µM
IC50 (SW 1116): > 5.12 µM
IC50 (THP-1): > 5.12 µM
IC50 (BL-41): > 5.12 µM
IC50 (D-423MG): 2.94 µM
IC50 (MHH-CALL-2): > 5.12 µM
IC50 (NB1): > 5.12 µM
IC50 (OPM-2): > 5.12 µM
IC50 (Raji): > 5.12 µM
IC50 (EB2): 1.75 µM
IC50 (CA46): > 5.12 µM
IC50 (NCI-H1436): > 5.12 µM
IC50 (NCI-H2196): > 5.12 µM
IC50 (UACC-812): > 5.12 µM
IC50 (NCI-H1573): > 5.12 µM
IC50 (NCI-H1882): > 5.12 µM
IC50 (L-540): > 5.12 µM
IC50 (ECC12): > 5.12 µM
IC50 (LC-1F): > 5.12 µM
IC50 (LP-1): > 5.12 µM
IC50 (YT): 0.121 µM
IC50 (HCC1599): > 5.12 µM
IC50 (NCI-H2009): 5.01 µM and > 5.12 µM
IC50 (CMK): 4.57 µM
IC50 (RPMI 8402): > 5.12 µM
IC50 (23132-87): 3.36 µM
IC50 (23132-87; Homo sapiens): > 5.12 µM
IC50 (JIYOYE): > 5.12 µM
IC50 (SUP-T1): > 5.12 µM
IC50 (YH-13): 1.95 µM
IC50 (K052): > 5.12 µM
IC50 (NCI-H1703; Homo sapiens, NCI-H1703): > 5.12 µM
IC50 (NCI-H1703; nci-h1703): > 5.12 µM
IC50 (SNU-C1): > 5.12 µM
IC50 (IMR-5): > 5.12 µM
IC50 (LC4-1): > 5.12 µM
IC50 (RL): > 5.12 µM
IC50 (ECC4): > 5.12 µM

From ChEMBL document CHEMBL1201861, “Genomics of Drug Sensitity in Cancer screening data, Wellcome Trust Sanger Institute”
